Laboratory results taken from patent publication US11447495B2, “Substituted benzo[f]imidazo[1,5-a][1,4]diazepines as GABA(a) receptor modulators” (priority 2016, dated 2022).
Like-named read-outs stand apart in the source and are kept apart here.

Assays:
[1] = Airway hyperresponsiveness (sRaw) to methacholine in ovalbumin asthma model; type: in vivo, ova s/c BALB/c mice; conditions: oral gavage, 100 mg/kg twice daily for 5 days, methacholine challenge
Description: Compounds described herein may reduce airway hyperresponsiveness in animal models of asthma. Therefore, mice may be sensitized three times with intra-peritoneal (i.p.) injections of 2 mg/kg/d of ovalbumin (Ova) emulsified in […] on days 0, 7 and 14 in a total volume of 100 μL. In addition, mice may be challenged intra-nasally (i.n.) with 1 mg/kg/d Ova for 5 days from days 23-27. Control mice may be sensitized with Ova and challenged with saline. The airway hyperresponsiveness measurements may be carried out with DSI's Buxco® FinePointe Non-Invasive Airway Mechanics (NAM) instrument consisting of a nasal chamber in combination with the thoracic chamber that allows the computation of specific airway resistance (sRaw). Treated conscious, spontaneously breathing Ova S/C mice may be exposed to aerosolized phosphate buffered saline (PBS) (for the baseline measurement) or methacholine (1.5625-12.5 mg/mL) for 1 minute and readings (sRaw) may be taken and averaged for 3 minutes after each nebulization.
Drug treatment protocol: Sterile solutions of compounds were prepared in 2% hydroxypropyl methylcellulose solution (Sigma-Aldrich, St. Louis, Mo.) and 2.5% polyethylene glycol (Sigma Aldrich, St. Louis, Mo.) for oral administration in a biological safety cabinet. A fine suspension was obtained by grinding the mixture with a mortar and pestle. Drugs were administered individually at 100 mg/kg by oral gavage (200 ul) with 20G gavage needles (Kent Scientific Corporation, Torrington Conn.) to groups of ova s/c BALB/c twice daily for 5 days during the ova challenge period. Mice received a single p.o. dose of the compounds just before airway parameter measurements. Compounds for i.p. injection were prepared in 10% DMSO, 40% propylene glycol, and 50% PBS and given as 100 ul injection. Mice were monitored daily after drug administration. Assessment of Airway hyper-responsiveness: Airway hyper-responsiveness to methacholine in conscious, spontaneously breathing animals was measured by DSI's Buxco® FinePointe Non-Invasive Airway Mechanics (NAM) instrument. Before measurements were taken, mice were acclimated to the chambers 15 minutes daily for 5 days. In addition, an ovalbumin sensitization and challenge protocol consists of randomized male BALB/c mice that were sensitized three times with intra-peritoneal (i.p.) injections of 2 mg/kg/d of ovalbumin (Ova) (Sigma-Aldrich, St. Louis, Mo.) emulsified in 2 mg of Alum (Imject Alum; Thermo Scientific, Pierce, Rockford, Ill.) on days 0, 7 and 14 in a total volume of 100 μL. The mice were then challenged intra-nasally (i.n.) with 1 mg/kg/d Ova for 5 days from days 23-27. Control mice were sensitized with Ova and challenged with saline. The chambers were also calibrated each time before data collection. Briefly, the nasal chamber in combination with the thoracic chamber allows the computation of specific airway resistance (sRaw). The FinePointe software computes specific airway resistance (sRaw) with all other ventilatory parameters derived by the NAM analyzer. Mice were exposed to aerosolized PBS (for the baseline measurement) or methacholine (1.5625-12.5 mg/mL) for 1 minute and readings were taken and averaged for 3 minutes after each nebulization. Data obtained were presented as sRaw versus the methacholine concentration (mg/mL) used to generate the aerosol. FIG. 5A-5F show compound effects on airway hyperresponsiveness. Specific airway resistance (sRaw) was measured at increasing dosages of methacholine by a DSI's Buxco FinePointe non-invasive airway mechanics instrument. Ova s/c BALB/c mice were administered all compounds via oral gavage, 100 mg/kg twice daily for 5 days. Data represent mean±SEM from 10 mice in each group. *, **, and *** indicate p<0.05, p<0.01, p<0.001 significance, respectively, compared to vehicle treated ova s/c BALB/c mice.

[2] = test system: inflammatory cells, eosinophils, CD4+ T cells in BALF; assay: Inflammatory cell numbers in BALF by flow cytometry; type: in vivo, ova s/c BALB/c mice; conditions: 100 mg/kg twice daily for 5 days
Description: The change of the number of specific immune cells caused by compounds may be investigated in the bronchoalveolar lavage fluid (BALF) of Ova S/C mice. Therefore, a bronchoalveolar lavage may be carried out followed by the lysis of red blood cells. Incubation of cell-type specific antibodies with BALF may allow the quantification of leukocytes such as eosinophils and CD4^+ T-lymphocytes using flow cytometry.
Determination of anti-inflammatory properties of compounds were investigated in an allergen induced mouse model of asthma. At the day of analysis, bronchoalveolar lavage (BAL) was performed with 1 mL of Ca2+ and Mg2+ free PBS. Red blood cells (RBCs) were lysed using BD red blood cell lysis buffer (BD Pharmingen, San Jose, Calif.). BALF was split into four different tubes and non-specific binding to Fc receptors was blocked for 5 minutes using 6 μg/mL of 2.4G2 mouse BD Fc Block™ (BD Pharmingen, San Jose, Calif.). BALF cells were stained for 30 minutes at 4° C. in the dark with 100 μL BSA stain buffer (BD Pharmingen, San Jose, Calif.) containing the final concentrations of the following antibodies: anti-mouse CD45 APC (1:1000, 30-F11, Affymetrix eBiosciences, San Diego, Calif.), FITC rat anti-mouse CD4 (1:500, RM4-5, BD Pharmingen, San Jose, Calif.), PE Rat Anti-Mouse Siglec F (1:500, E50-2440, BD Pharmingen, San Jose, Calif.) and mouse CCR3 PE-conjugated antibody (1:40, 83101, R&D systems Inc, Minneapolis, Minn.). Flow cytometric studies were done using the BD FACS Calibur (BD Pharmingen, San Jose, Calif.) and data analyzed subsequently using Cell Quest pro software (BD Pharmingen, San Jose, Calif.). General gating for immune cells were followed. Total inflammatory cell count was obtained by running all samples on high (60 μL/min) for 180 seconds. The gated anti-mouse CD45 positive events in the fourth channel (FL4) were used to calculate the total inflammatory cell count as cells/mL. The frequencies of CCR3+/Siglec F were used for quantification of eosinophils and CD4+ for CD4+ T cell populations in their respective gates were multiplied by the total inflammatory cell count (cells/mL) to obtain the differential cell population. Statistical analysis: Data were analyzed using GraphPad Prism 4 (GraphPad Software, San Diego, Calif.) and expressed as mean±SEM. One-way analysis of variance (ANOVA) with Dunnet post hoc test or two-way ANOVA with Bonferroni post hoc test were performed for statistical difference for multiple groups. FIGS. 7A-7C show effects of compounds on inflammatory cells. Groups of 10 ova s/c BALB/c mice were administered compounds at 100 mg/kg twice daily for 5 days. BALF was harvested from each animal and used for (A) quantification of total inflammatory cells; (B) eosinophils; (C) CD4^+ T cells. Cells were stained with mouse CD45^+ APC antibody, and samples were analyzed with BD FACS Calibur on high flow rate (60 μl/minute) for 180 seconds. The gated positive events in the fourth channel (FL4) were used to calculate the total inflammatory cell count as cells/ml. Quantification of specific leukocyte population (B) eosinophils (C) CD4^+ T cell populations were stained with specific antibodies and detected by flow cytometry. Data represent mean±SEM from 10 mice in each group. *, **, and *** indicate p<0.05, p<0.01, and p<0.001 significance, respectively, compared to vehicle treated ova s/c BALB/c mice.

[3] = Microsomal stability, mouse liver microsomes; type: in vitro ADME; conditions: 10 μM compound
Description: (§1) The metabolic stability of compounds in vivo can be estimated with the stability of compounds in the presence of liver microsomes. Therefore, 4 μL of 1 mM DMSO solution of test compound at a final concentration of 10 μM were preincubated at 37° C. for 5 minutes on a digital heating shaking dry bath (Fischer scientific, Pittsburgh, Pa.) in a mixture containing 282 μL of water, 80 μL of phosphate buffer (0.5 M, pH 7.4) 20 μL of NADPH Regenerating System Solution A (BD Bioscience, San Jose, Calif.) and 4 μL of NADPH Regenerating System Solution B (BD Bioscience, San Jose, Calif.) in a total volume of 391.2 μL. Following preincubation, the reaction was initiated by addition of 8.8 μL of either human liver microsomes (BD Gentest, San Jose, Calif.) or mouse liver microsomes (Life technologies, Rockford, Ill.) at a protein concentration of 0.5 mg/mL. Aliquots of 50 μL were taken at time intervals of 0 (without microsomes), 10, 20, 30, 40, 50 and 60 minutes. Each aliquot was added to 100 μL of cold acetonitrile solution containing 1 μM of verapamil HCL as internal standard. This was followed by sonication for 10 seconds and centrifugation at 10,000 rpm for 5 minutes. 100 μL of the supernatant was transferred into Spin-X HPLC filter tubes (Corning Incorporated, NY) and centrifuged at 13,000 rpm for 5 minutes. The filtrate was diluted 100-fold and subsequently analyzed by LC-MS/MS with Shimadzu LCMS 8040, (Shimadzu Scientific Instruments, Columbia, Md.). The ratio of the peak areas of the internal standard and test compound was calculated for every time point and the natural log of the ratio were plotted against time to determine the linear slope (k). The metabolic rate (k*C0/C), half-life (0.693/k), and […] (V*k) were calculated, where k is the slope, C0 is the initial concentration of test compound, C is the concentration of microsomes, and V is the volume of incubation in μL per microsomal protein in mg. All experiments were repeated two time in triplicates.

[4] = Microsomal stability, human liver microsomes; type: in vitro ADME; conditions: 10 μM compound
Description: as §1

HEK293 = assay: Cytotoxicity, CellTiter-Glo cell viability assay, kidney cells; type: cell-based, human
Description: The cytotoxicity of compounds may be evaluated by treating HEK293 human embryonic kidney cells with increasing concentrations of compounds for 24-48 hours followed by the quantification of living cells using Cell-Titer Glo (Promega).
Compounds with increased cytotoxicity can be identified using an in vitro cytotoxicity assay. Therefore, human embryonic kidney 293T (HEK293T) cell lines were purchased (ATCC) and cultured in 75 cm2 flasks (CellStar). Cells were grown in DMEM/High Glucose (Hyclone, #SH3024301) media to which non-essential amino acids (Hyclone, #SH30238.01), 10 mM HEPES (Hyclone, #SH302237.01), 5×106 units of penicillin and streptomycin (Hyclone, #SV30010), and 10% of heat inactivated fetal bovine serum (Gibco, #10082147) were added. Cells were harvested using 0.05% Trypsin (Hyclone, #SH3023601). The cell viability assay was evaluated using CellTiter-Glo™ Luminescent Cell Viability Assay Kit (Promega, Madison, Wis.), which contains luciferase and all its substrate except ATP. The controls for the cytotoxicity assay used were (E)-10-(bromotriphenylphosphoranyl)decyl 4-(4-(tert-butyl)phenyl)-4-oxobut-2-enoate (400 μM in DMSO, positive control) and DMSO (negative control). All luminescence readings were performed on a Tecan Infinite M1000 plate reader. Small volume transfers were performed on the Tecan Freedom EVO liquid handling system with a 100 nL pin tool transfer (V&P Scientific). Serial dilutions were done in 96-well polypropylene plates (Corning, #3365) and assays were conducted in 384-well white optical bottom plates. The assays were carried out in quadruplet in three independent runs. The data were normalized to the controls and if possible analyzed by nonlinear regression (GraphPad Prism).

HEPG2 = assay: Cytotoxicity, liver cells; type: cell-based, human
[5] = test system: guinea pig airway smooth muscle; assay: Relaxation of substance P contracted guinea pig tracheal rings; design: dose or concentration left out as unconfirmed
[6] = Pharmacokinetic analysis in blood, lungs and brain; conditions: mouse, 25 mg/kg oral gavage

| SMILES | airway hyperresponsiveness (sRaw) [1] | numbers of inflammatory cells in BALF [2] | MLM % remaining after 60 min [3] | HLM % remaining after 60 min [4] | also measured |
| --- | --- | --- | --- | --- | --- |
| C[C@H]1N=C(c2ccccc2F)c2cc(C3CC3)ccc2-n2cnc(C(=O)O)c21 [GL-III-43, (R)-8-cyclopropyl-6-(2-fluorophenyl)-4-methyl-4H-benzo[f]imidazo[1,5-a][1,4]diazepine-3-carboxylic acid] | not able to alleviate airway hyperresponsiveness | did not modulate the numbers of inflammatory cells |  |  |  |
| CC(C)(C)OC(=O)c1ncn2c1[C@@H]1CCCN1C(=O)c1cc(O)ccc1-2 [RJ-02-67, tert-butyl (S)-7-hydroxy-9-oxo-11,12,13,13a-tetrahydro-9H-benzo[e]imidazo[5,1-c]pyrrolo[1,2-a][1,4]diazepine-1-carboxylate] |  |  | 46.6 ± 0.3% | 90.6 ± 0.2% | LD50 HEK293 (Kidney) (HEK293; human, HEK293 (HEK293T) human embryonic kidney cells): >400 µM; LD50 HEPG2 (Liver) (HEPG2; human, HepG2 liver cells): >400 µM |
| COc1ccc2c(c1)C(=O)N1CCC[C@H]1c1c(-c3nnn[nH]3)ncn1-2 [RJ-03-57, (S)-7-methoxy-1-(1H-tetrazol-5-yl)-11,12,13,13a-tetrahydro-9H-benzo[e]imidazo[5,1-c]pyrrolo[1,2-a][1,4]diazepin-9-one] | not able to alleviate airway hyperresponsiveness |  | 98.3 ± 0.2% | 94.3 ± 0.1% | airway smooth muscle contractile force, guinea pig tracheal rings [5]: All investigated compounds except RJ-03-57 reduced the constriction of airway smooth muscle; absorption [6]: moderate absorption; clearance [6]: fast clearance; LD50 HEK293 (Kidney) (HEK293): >200 µM; LD50 HEPG2 (Liver) (HEPG2): >200 µM |
| O=C(O)c1ncn2c1[C@@H]1CCCN1C(=O)c1cc(O)ccc1-2 [RJ-03-90, (S)-7-hydroxy-9-oxo-11,12,13,13a-tetrahydro-9H-benzo[e]imidazo[5,1-c]pyrrolo[1,2-a][1,4]diazepine-1-carboxylic acid] |  | did not modulate the numbers of inflammatory cells |  |  |  |
